Assay results reported in patent publication US20150141439A1, “PHARMACEUTICAL COMPOSITION FOR THE PREVENTION OR TREATMENT OF BRAIN TUMOR OR TEMODAL RESISTANT GLIOBLASTOMA MULTIFORM COMPRISING AZATHIOPRINE AS AN ACTIVE INGREDIENT” (KOREA RESEARCH INSTITUTE OF CHEMICAL TECHNOLOGY, priority 2012, published 2015).
pIC50: −log10 of the molar value.

Experiments:
[1] = system: GBM #5 glioblastoma multiform patient originated cells; assay: Neurosphere formation inhibition, GBM #5; assay type: cell-based, human; design: key: S: strong effect; I: intermediate effect; R: rare effect; conditions: GBM #5, type B (classical), Azathioprine 1 μM, duration 21 day
Procedure: (§1) Particularly, to investigate neurosphere formation, glioblastoma multiform cells were cultured for a certain time and the cells were distributed again in culture vessels, followed by additional culture. Then, the number of newly generated neurospheres was measured. First, the glioblastoma multiform patient originated cells were sub-cultured, which were distributed in a 96-well plate (20, 50, and 200 cells in 50 μl of culture medium/well). […] Then, the compound of formula 1 (azathioprine) and the compound of Comparative Example 1 (Temodal) were added to 50 μl of cell culture medium with the same concentrations as the above once a week, which were then cultured for 7˜23 days. When neurosphere was formed at least 50 μm in the control group not treated with the compound, the number of neurospheres in each well was counted to compare the neurosphere formation before and after the treatment of the compound of formula 1 (azathioprine) and the compound of Comparative Example 1 (Temodal).
(§2) The glioblastoma multiform cells used in this experiment were classified into 4 types, which are type A, type B, type C, and type D, according to the gene expression pattern. Methylation of MGMT (O6-me-G methyltransferase), the DNA repair protein, was confirmed in each cell line. […]

[2] = system: GBM #6 glioblastoma multiform patient originated cells; assay: Neurosphere formation inhibition, GBM #6; assay type: cell-based, human; design: key: S: strong effect; I: intermediate effect; R: rare effect; conditions: GBM #6, type B (classical), Azathioprine 1 μM, duration 23 day
Procedure: (§3) Particularly, to investigate neurosphere formation, glioblastoma multiform cells were cultured for a certain time and the cells were distributed again in culture vessels, followed by additional culture. Then, the number of newly generated neurospheres was measured. First, the glioblastoma multiform patient originated cells were sub-cultured, which were distributed in a 96-well plate (20, 50, and 200 cells in 50 μl of culture medium/well). 2, 6, and 20 μM of the compound of formula 1 (azathioprine) and the compound of Comparative Example 1 (Temodal) were treated thereto by 50 μl per well to make the final concentrations of 1, 3, and 10 μM. Then, the compound of formula 1 (azathioprine) and the compound of Comparative Example 1 (Temodal) were added to 50 μl of cell culture medium with the same concentrations as the above once a week, which were then cultured for 7˜23 days. When neurosphere was formed at least 50 μm in the control group not treated with the compound, the number of neurospheres in each well was counted to compare the neurosphere formation before and after the treatment of the compound of formula 1 (azathioprine) and the compound of Comparative Example 1 (Temodal).
(§4) The glioblastoma multiform cells used in this experiment were classified into 4 types, which are type A, type B, type C, and type D, according to the gene expression pattern. […]

[3] = system: GBM #8 glioblastoma multiform patient originated cells; assay: Neurosphere formation inhibition, GBM #8; assay type: cell-based, human; design: key: S: strong effect; I: intermediate effect; R: rare effect; conditions: GBM #8, type C (mesenchymal), Azathioprine 1 μM, duration 15 day
Procedure: as §3, §4

[4] = system: GBM #10 glioblastoma multiform patient originated cells; assay: Neurosphere formation inhibition, GBM #10; assay type: cell-based, human; design: key: S: strong effect; I: intermediate effect; R: rare effect; conditions: GBM #10, type D (non-classified), Azathioprine 1 μM, duration 10 day
Procedure: as §1, §2

[5] = system: Hela Human adenocarcinoma; assay: Secondary cytotoxicity test, Hela; assay type: cell-based
Procedure: (§5) Particularly, the cell growth inhibition effect was measured by WST-1 cell proliferation assay [http://www.roche-applied-science.com/PROD_INF/MANUALS/CELL_MAN/apoptosis—087—088.pdf]. The compound of formula 1 was loaded in a 384-well cell culture plate. Three types of glioblastoma multiform cell lines [proneural subtype (559T), mesenchymal subtype (592T), and classical subtype (626T)], normal human astrocytes (NHA), a lung cancer cell line (A549), and a glioblastoma multiform cell line (U87MG) were distributed in the plate at the density of 4.5×10^3 cells/well, and the medium was filled up to make 50 μl per well. At this time, the concentration of the solvent DMSO for the compound of formula 1 was no more than 0.2%. After culturing the cells for 72 hours, 5 mg/ml of WST-1 reagent was added by 5 μl per well, followed by reaction for 3˜4 hours. Then OD450 was measured to investigate the effect of the compound of formula 1 on cell proliferation.
(§6) To investigate the cell growth inhibition effect of the compound of formula 1 of the present invention (azathioprine) in many different cell lines, secondary cytotoxicity test was performed with the cell lines listed in Table 5 by the same manner as described in Example 1.

[6] = system: HCT-116 Human colorectal carcinoma; assay: Secondary cytotoxicity test, HCT-116; assay type: cell-based
Procedure: as §5, §6

[7] = system: NCI-H23 Human lung adenocarcinoma; assay: Secondary cytotoxicity test, NCI-H23; assay type: cell-based
Procedure: as §5, §6

[8] = system: MCF-7 Human breast adenocarcinoma; assay: Secondary cytotoxicity test, MCF-7; assay type: cell-based; conditions: MCF7
Procedure: as §5, §6

[9] = system: PC3 Human prostate adenocarcinoma; assay: Secondary cytotoxicity test, PC3; assay type: cell-based; conditions: PC-3
Procedure: as §5, §6

[10] = system: MKN45 Human stomach adenocarcinoma; assay: Secondary cytotoxicity test, MKN45; assay type: cell-based; conditions: MKN-45
Procedure: as §5, §6

[11] = system: cells of lung cancer with brain metastasis transplanted in the mouse brain; assay: Animal test with cells of lung cancer with brain metastasis, survival; assay type: in vivo; conditions: azathioprine 2 mg/kg oral every day after day 11, Temodal (TMZ) 65 mg/kg oral 5 days from day 17
Procedure: The cells of lung cancer with brain metastasis were obtained from Samsung Hospital (Seoul) and cultured. The cultured cells (2×10^5/5 μl) were transplanted in the mouse brain. 17 days later, Temodal administration (65 mg/kg, oral administration) began, which continued for 5 days. The compound of formula 1 of the present invention (azathioprine) was co-treated to the mouse by oral-administration at the dose of 2 mg/kg every day after 11 days from the transplantation of the cells of lung cancer with brain metastasis in the mouse brain. Then, the average survival period was investigated.

[12] = system: normal human astrocytes (NHA); conditions: azathioprine 10 μM, 24 hours later, before and after the treatment

## Cn1cnc([N+](=O)[O-])c1Sc1ncnc2nc[nH]c12 [Azathioprine, 6-(1-methyl-4-nitro-1H-imidazol-5-ylthio)-7H-purine]
[1]
  inhibition of neurosphere formation: S
[2]
  inhibition of neurosphere formation: S
[3]
  inhibition of neurosphere formation: S
[4]
  inhibition of neurosphere formation: S
[5]
  pIC50: 5.54
[6]
  pIC50: 5.26
[7]
  pIC50: 5.31
[8]
  pIC50: 5.59
[9]
  pIC50: 5.17
[10]
  pIC50: 5.92
[11]
  Average Survival Period: 63 days
  Survival Period Extension Rate (%): 59-70%
[12]
  concentrations of azathioprine metabolites (TGMP, MeTIMP, MeTGMP, TIMP) in cell lysate: not much changed
